Assay results taken from patent US20100310665A1, “BACTERIOSTATIC OR BACTERIOCIDAL COMPOSITIONS AND METHODS” (Revalesio Corporation, priority 2007, published 2010).

System: Methicillin-Resistant Staphylococcus Aureus (MRSA)
Assay: MRSA bacteriocidal effects, plates with no growth
Type: cell-based
Parameters: concentration or dose not given beside the values
Conditions: fluids in combination with oxacillin

Compound: Cc1onc(-c2ccccc2)c1C(=O)N[C@@H]1C(=O)N2[C@@H]1SC(C)(C)[C@@H]2C(=O)O [Drug, oxacillin]
- Percentage of plates with no growth at indicated time (0 min): 16.67%
- Percentage of plates with no growth at indicated time (30 min): 0.00%
- Percentage of plates with no growth at indicated time (120 min): 0.00%
- Percentage of plates with no growth at indicated time (240 min): 0.00%
- Percentage of plates with no growth at indicated time (480 min): 0.00%
- Percentage of plates with no growth at indicated time (1080 min): 0.00%
- Percentage of plates with no growth at indicated time (1440 min): 0.00%
